Test results published in patent US7144862B2, “Orally administered peptides to ameliorate atherosclerosis” (The Regents of the University of California, priority 2000, dated 2006).

Experiments:
[1] = Plasma cholesterol lipoprotein profiles (CLiP); type: in vivo, mouse; details: 16 weeks atherogenic diet, daily i.p.
Experimental: Plasma cholesterol lipoprotein profiles were measured using our recently-developed CLiP method (Garber et al. (2000) J. Lipid Res. 41:1020–1026). Briefly, 5 to 10 μl of plasma were analyzed using a single Superose 6 (Pharmacia, Piscataway N.J.) column. Immediately following the column, cholesterol reagent was introduced through a mixing tee, and the eluent:reagent mixture entered a post-column reaction coil. Cholesterol content of the eluent mixture was spectrophotometrically detected at 500 nm, and data points were collected into a computer. The resulting profiles were decomposed into component peaks and analyzed for relative area using PeakFit (SPSS Science, Chicago, Ill.); absolute cholesterol values for total cholesterol and each component peak were determined by comparison with a control sample of known values. In some cases fractions were collected to determine distribution of radioactivity. The CLiP method allowed analysis of individual mouse samples, avoiding the use of pooled samples.

[2] = DSC, chain melting transition of DMPC; type: physicochemical; details: DMPC/peptide 100:1 (mol/mol)
Experimental: A known amount of phospholipid was dissolved in chloroform. For one set of samples, peptide was dissolved in methanol and added to a solution of DiPoPE in chloroforn/methanol (2:1, v:v). For both, pure lipid samples and the organic solutions of lipid and peptide, solvent was removed under a slow stream of nitrogen. Residual solvent was removed under vacuum. […] For DMPC, four consecutive scans with a 60 minute equilibration time between scans were taken. DSC thermograms were analyzed using the software provided by MicroCal Inc., Amherst, Mass., and Origin, version 5.0.
The effect of these 18A analogues on the chain melting transition of multilamellar vesicles of DMPC was studied by DSC using peptide-lipid mixtures at 100:1 lipid/peptide molar ratio.

[3] = Antibody detection by indirect ELISA after 16 weeks of daily injection; type: in vivo, mouse; details: plasma at conclusion of 16-week injection period
Experimental: To determine whether daily injections of peptides elicited any immune response in mice, indirect ELISA titration (Engvall (1980) Meth. Enzymol. 70:419–439) was carried out with plasma taken from mice at the time of organ collection (following sixteen weeks of daily injection). Plates were coated with the injected peptides or MoAI (10 μg/ml). Plates were incubated overnight. After thorough washing with borate buffered saline (pH 8.2) containing 0.05% Tween 20, and blocking with buffer (0.1% gelatin and 0.1% BSA in borate buffer) for 1 h, 200 μl of the diluted mouse plasma (1:100 dilution) samples were serially diluted 1:1 with borate-buffered saline. Biotinylated goat antibody to mouse IgG (0.1 μg/ml) was then added to the wells and the plates were treated with SA-HRP (Streptavidin-horse radish peroxidase) for an hour and developed with ABTS and peroxide as substrate. The plates were incubated overnight at room temperature after every addition of antigen/antibody and washed thoroughly with borate buffered saline (pH 8.2) containing 0.05% Tween 20, and blocked with buffer (0.1% gelatin and 0.1% BSA in borate buffer) for 1 h before the next addition.

[4] = mouse, in vivo
Experimental: The 5F peptide, MoAI, and human apo A-I were labeled with ^125I by the method of Bilheimer et al. (1972) Biochim. Biophys. Acta 260: 212–221. Mice were placed on a modified Thomas-Hartroft atherogenic diet (#TD88051; Teklad, Madison, Wis.) for four weeks at which time daily intraperitoneal injections of peptide or protein dissolved in 200 μl phosphate-buffered saline (PBS) were begun. Animals injected with MoAI or human apo A-I received 50 μg per animal; those injected with 5F received 20 μg. Animals were not fasted for the kinetic studies and blood samples were taken under xylazine:ketamine anesthesia from the retro-orbital sinus at 15, 30, and 45 minutes, and 1, 1.5, 2, 3, 4, 6, 8, 12, and 24 hours following injection. Each animal provided three blood samples at different time points (all retro-orbital and alternating eyes), and at least three samples were collected (from different animals) at each time point. Samples were collected into heparinized capillary tubes, then placed in microcentrifuge tubes; the plasma was separated by centrifugation. Duplicate 10 μl aliquots of each sample were taken for radioactivity determination, using gamma counting (Cobra; Packard Instruments, Downers Grove, Ill.) for 10 minutes per sample. Total plasma volume was calculated as 4.2% body weight. Each sample was expressed as percent of injected CPM in total plasma. Free ^125I was determined by trichloroacetic acid (TCA) precipitation (1 ml of 10% TCA per 10 μl plasma sample). Fitting to the kinetic model was done using all data points, rather than averages at each time point (PKAnalyst, MicroMath Scientific Software, Salt Lake City, Utah).
Treatment groups were compared by two-tailed t-tests or one way analysis of variance (where the data were normally distributed), or by one way analysis of variance on ranks (SigmaStat; SPSS Science, Chicago, Ill.). Kinetics of peptide or protein turnover were analyzed by fitting to a first order one-compartment kinetic model assuming non-equal input and output rates (PKAnalyst; MicroMath Scientific Software, Salt Lake City, Utah).

[5] = mouse, in vivo, ip
Experimental: Mice were acquired at six weeks of age, and randomized into groups of 20, except that a negative control group of 10 received no treatments and was given standard rodent chow. At eight weeks of age, the treatment groups were placed on a modified Thomas-Hartroft atherogenic diet (#TD88051; Teklad, Madison, Wis.), and injections were begun. […] Animals were injected intraperitoneally daily for 16 weeks, including weekends and holidays.
At the end of the study (week 16), at the last bleeding, the heart and the liver were excised. […] The livers were removed and weighed.

[6] = molecular target: T1, lecithin:cholesterol acyl transferase (LCAT) (Homo sapiens, UniProt P04180); assay: Assay of LCAT activity; type: biochemical; details: 20 μg/ml peptide, egg PC-cholesterol vesicles
T1 construct: LCAT was isolated from fresh normolipidemic plasma by the method of Albers et al; from tissue; host or cells: fresh normolipidemic plasma
T1 sequence (P04180 25-440): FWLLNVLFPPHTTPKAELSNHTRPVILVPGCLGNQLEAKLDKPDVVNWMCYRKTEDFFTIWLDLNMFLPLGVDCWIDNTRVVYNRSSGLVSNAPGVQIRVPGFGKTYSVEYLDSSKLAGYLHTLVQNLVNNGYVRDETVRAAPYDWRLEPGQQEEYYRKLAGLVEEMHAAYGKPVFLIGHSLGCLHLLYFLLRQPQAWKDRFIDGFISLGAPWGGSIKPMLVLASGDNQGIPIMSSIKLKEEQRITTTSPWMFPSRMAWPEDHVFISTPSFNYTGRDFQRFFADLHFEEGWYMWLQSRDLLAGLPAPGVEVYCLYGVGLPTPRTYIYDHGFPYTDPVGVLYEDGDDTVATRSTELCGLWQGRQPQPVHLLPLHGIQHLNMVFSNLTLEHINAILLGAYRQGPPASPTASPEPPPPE
Experimental: LCAT was isolated from fresh normolipidemic plasma by the method of Albers et al. (1986) Methods Enzymol. 129: 763–783, with some modifications. The density of the plasma was adjusted to 1.21 g/ml and it was centrifuged at 175,000 g for 24 h. The LCAT containing fraction was subjected to Affi-Gel Blue chromatography followed by DE-52 chromatography. LCAT was eluted from the DE-52 column using a 75 to 200 mM NaCl gradient in Tris buffer (10 mM, pH 7.6).
The substrate was prepared by sonicating egg PC/cholesterol (90:20 mol/mol) containing trace amounts of 7α-^3H cholesterol in a Branson 250 sonifier for 12 mins to obtain small unilamellar vesicles. The substrate (50 μl) was incubated with 5 μg of peptide or human apo A-I and 50 μl of BSA (40 μg/ml) for 1 h at 37° C. The total volume was brought up to 150 μl. After incubating for 1 h, 100 μl of LCAT was added and incubated for 1 h at 37° C. and the reaction was quenched by spotting 10 μl on a silica strip. Cholesterol and cholesteryl ester were separated by thin layer chromatography of the silica strip in hexane:chloroform (2:1 v/v) mixture. […] The positions of the standards were used to cut the strip into two and the two parts were counted in scintillation fluid in a Packard Tri Carb 4530. […] The activation of LCAT by the peptides is expressed as a percentage of the total activation by apo A-I .

Ac-DWLKAFYDKVFEKFKEFF-NH2 [Peptide 5F, Ac-D-W-L-K-A-F-Y-D-K-V-F-E-K-F-K-E-F-F-NH2]
HDL as percent of total cholesterol [1]: (9.24 ± 1.18%*)
IDL + LDL as percent of total cholesterol [1]: (42.80 ± 2.51%)
VLDL as percent of total cholesterol [1]: (47.96 ± 3.26%)
HDL cholesterol ([1]; mean ± SEM): 17.92 ± 2.91 mg/dL
IDL + LDL cholesterol ([1]; mean ± SEM): 83.37 ± 8.15 mg/dL
TC (total cholesterol) ([1]; mean ± SEM): 201.63 ± 25.21 mg/dL
VLDL cholesterol ([1]; mean ± SEM): 100.34 ± 15.72 mg/dL
TCM(° C.) ([2]; 1.5 mM DMPC, chain melting transition temperature): 23.2 °C
ΔHCM (kcals/mol) ([2]; enthalpy of the transition): 4.9 kcals/mol
ΔT1/2 (° C.) ([2]; width at half maximum of the transition): 0.5 °C
antibodies against the injected material [3]: No antibodies were detected
T½ ([4]; C57BL/6J, ip): 6.22 h
Max. % in plasma [4]: 14.29%
toxicity [5]: No toxicity
LCAT activation relative to apo A-I (100%) [6]: 80 % of apo A-I
